Results: patent US20170226059A1, “APOE4-TARGETED THERAPUTICS THAT INCREASE SIRT1” (The Regents of the University of California, priority 2014, published 2017)
“Also recorded” adds a separate entry of the source. Where two headings read alike, the source gives them in different places.

Experiments:
ADAM10 mRNA = ADAM10 mRNA levels / transcription in A172 cells transfected with ApoE4; assay type: cell-based, human; details: A03 at 2 uM
[1] = rodents, high doses; cited from earlier work
[2] = Phase1 human trials, up to 200 mgs bid; cited from earlier work
SirT1 mRNA = SirT1 mRNA levels in A172 cells transfected with ApoE4 (quantitative real-time PCR); assay type: cell-based, human; details: A03 at 2 μM
Procedure: Total RNA from transfected and drug-treated cells is isolated using the High Pure RNA isolation kit (Roche) and 1 μg of RNA is reverse-transcribed. To analyze the mRNA levels of SirT1, real time PCR can be performed on first-strand cDNAs as described (Theendakara et al. (2013) Proc. Natl. Acad. Sci. USA, 10(45): 18303-18308). The real-time PCR can be performed in Light Cycler 480-384-multiwell plates (Roche). Primers for SirT1 were designed using the Roche universal probe library system and the primers were synthesized by Integrated DNA Technology. Real-time PCR can be performed in SYBR Green master mix with the corresponding primer sets. The melting curves of PCR products are monitored to ensure that a single melting curve is obtained. For analysis of the real-time PCR data, δCt values of samples are normalized to values obtained for GAPDH, which is assayed simultaneously. Relative quantification using the DeltaDelta Ct method can be adopted to calculate the relative quantity of SirT1 levels.

SirT1 = test: Primary AlphaLISA screening assay: SirT1 levels in N2a cells stably transfected with ApoE4; assay type: cell-based, mouse; details: for SirT1 levels (dose-response): N2A neuroblastoma cells stably transfected with ApoE4
Procedure: We have developed a primary screening assay that is HTS formatable; the assay would be done on N2a cells (mouse neuroblastoma cells) that have been stably transfected with ApoE3 and ApoE4. The cells are treated with drugs and the SirT1 levels are measured using the AlphaLISA assay that we have developed, e.g., as shown in FIG. 11. The illustrated AlphaLISA uses an antibody (Ab, E104, Abcam) that binds the C-terminus of SirT1 and is on the acceptor bead. The N-terminal Ab (D1D7, Abcam) is biotinylated and binds to the donor bead. For the primary assay the Neuro-2a (N2a) cells stably expressing similar levels of hApoE3 or hApoE4 are used. The primary assay can be done in triplicate. The N2a cells have reasonably good endogenous levels of APP thus avoiding the necessity of APP transfection. In general, for the assays N2a cells stably transfected with hApoE3 (E3) or hApoE4 (E4) are plated, e.g., at […] in 384-well plates in […] of growth medium and allowed to attached for 3 h. The E4 cells are treated with compounds overnight, E3 cells are controls. The following day, growth medium is removed and cells are lysed with AlphaLysis buffer complemented with protease and phosphatase inhibitors.
Then, the AlphaLISA assay is run and molecules that can increase or reverse the SirT1 levels in ApoE4 cells are identified. A preliminary estimate, based on the initial screening which yielded two reproducible “hits” from a set of 1000 compounds, which is a 0.2% hit-rate. […] Our initial screening was done on a small library of about 1000 compounds. The assay is translatable to a HTS format.

sAPPα = sAPPα levels in the presence of ApoE4 (AlphaLISA); assay type: cell-based; details: in the presence of ApoE4 (ApoE4-transfected cells); listed as Alaproclate
Procedure: sAPPα or sAPPβ secreted into the cellular media are determined with sAPPα or sAPPβ AlphaLISA immunoassay kits (PerkinElmer) according to the manufacturer's protocol with some modifications. The standards, blanks, and media are diluted with the buffer provided in the kit and added to the plate. During the first incubation step, the analyte is captured either by an antibody recognizing the α-secretase cleavage site at sAPPα C-terminus (clone 2B3) or the sAPPβ C-terminus, and then by a second biotin-labeled antibody specific to the N-terminal common domain of sAPP. In the second incubation step, the biotinylated anti-analyte antibody is bound to the streptavidin-coated donor beads. At the end of this reaction, the plates are read on an EnSpire Alpha 2390 multilabel plate reader equipped with the AlphaScreen module. The Aβ1-42 or 1-40 are determined from media and/or cells using Life Science's sandwich ELISA kit. The levels of Aβ are quantified from a standard curve and normalized to total cellular protein (Spilman et al. (2014) Brain Res. 1551: 25-44; Theendakara et al. (2013) Proc. Natl. Acad. Sci. USA, 10(45): 18303-18308), Tau and p-tau are determined from cell extracts by a solid phase double antibody sandwich ELISA technology designed for quantitative determination of phospho-tau (Antibodies-Online). APP and p-APP are determined by the DuoSet IC ELISA (R&D Systems) to measure phosphorylated APP in cell lysates. An immobilized capture antibody specific for APP binds both phosphorylated and unphosphorylated APP. After unbound material is washed away, a biotinylated detection antibody is used to detect either APP or phosphor-APP utilizing a standard HRP format. Using these assay procedures we notice a significant increase in p-tau and p-APP levels in ApoE4-transfected cells. It can be determined whether the primary “hits” reverse the ApoE4-mediated APP-Thr phosphorylation and tau-phosphorylation.

p-tau = test: p-Tau levels in SHSY5Y; assay type: cell-based
Procedure: sAPPα or sAPPβ secreted into the cellular media are determined with sAPPα or sAPPβ AlphaLISA immunoassay kits (PerkinElmer) according to the manufacturer's protocol with some modifications. The standards, blanks, and media are diluted with the buffer provided in the kit and added to the plate. During the first incubation step, the analyte is captured either by an antibody recognizing the α-secretase cleavage site at sAPPα C-terminus (clone 2B3) or the sAPPβ C-terminus, and then by a second biotin-labeled antibody specific to the N-terminal common domain of sAPP. In the second incubation step, the biotinylated anti-analyte antibody is bound to the streptavidin-coated donor beads. At the end of this reaction, the plates are read on an EnSpire Alpha 2390 multilabel plate reader equipped with the AlphaScreen module. The Aβ1-42 or 1-40 are determined from media and/or cells using Life Science's sandwich ELISA kit. The levels of Aβ are quantified from a standard curve and normalized to total cellular protein (Spilman et al. (2014) Brain Res. 1551: 25-44; Theendakara et al. (2013) Proc. Natl. Acad. Sci. USA, 10(45): 18303-18308), Tau and p-tau are determined from cell extracts by a solid phase double antibody sandwich ELISA technology designed for quantitative determination of phospho-tau (Antibodies-Online). […]

[3] = Brain penetration after subcutaneous injection in mice; assay type: in vivo
Procedure: Pharmacokinetic (PK) analysis for CNS exposure studies can consist of a time course design to collect heparinized plasma and brains (Korfmacher et al. (2001) Rapid Commun. Mass. Spectrom. 15(5): 335-340; Mei et al. (2006) AAPS J. 8(3): E493-500; Spilman et al. (2014) Brain Res. 1551: 25-44). Five non-transgenic mice can be used for the PK studies, and 1, 2, 4, 6, and 8 hour time points taken. Following oral, and either sc or ip administration of the molecules at 10 mg/kg, plasma and brain levels of the compounds can be determined by quantitative LC/MS/MS methodology. Plasma samples can be precipitated with acetonitrile:methanol (1:1) cocktail containing an internal standard. The brain samples can be homogenized directly in ethylacetate or extracted from 5M guanidine homogenates with liquid-liquid method. The resulting supernatant can be evaporated to dryness and subjected to the LC/MS/MS analysis. For each compound 3 mice can be used for this analysis. The brain-to-plasma ratios and brain levels can then be calculated to identify the best candidate(s) for further efficacy testing.

In the case of `CC(N)C(=O)OC(C)(C)Cc1ccc(Cl)cc1` (centres unmarked) [Compound A03, 1-(4-chlorophenyl)-2-methylpropan-2-yl 2-aminopropanoate], the “ADAM10 mRNA levels / transcription” value (ADAM10 mRNA) is listed as “normalized; also recorded: normalization of ADAM10 transcription”, the “ADAM10 mRNA levels / transcription” value (ADAM10 mRNA; listed as Alaproclate) is listed as “increased” and the liver toxicity [1] is listed as “observed liver toxicity”. For the same molecule, the adverse events [2] was “no observed adverse events”, the global scores [2] was “some improvements in global scores” and the “mRNA levels of SirT1” value (SirT1 mRNA) was “normalized; also recorded: normalize the mRNA levels for SirT1”. For the same molecule, the “mRNA levels of SirT1” value (SirT1 mRNA; listed as Alaproclate) was “increased”, the “EC20 for SirT1 enhancement” value (SirT1; N2A cells stably transfected with ApoE4) was 200 nM and the EC50 (SirT1; N2A cells stably transfected with ApoE4, read-out: EC50 for SirT1 enhancement) was roughly 2000 nM. For the same molecule, the “SirT1 levels (dose-response)” value (SirT1) was “generated a SirT1 dose-response; also recorded: SirT1 levels increasing with dose”, the “SirT1 levels (dose-response)” value (SirT1; listed as Alaproclate) was “increases” and the “SirT1 levels (dose-response)” value (SirT1; listed as alaproclate) was “increase SirT1 levels in a dose responsive manner”. The sAPPα levels (sAPPα) was “increases”, the p-Tau levels (p-tau) was “decreased” and the “brain penetration / brain permeability” value [3] was “excellent brain penetration”. The “brain penetration / brain permeability” value ([3]; listed as alaproclate) was “highly brain permeable” and the Kp ([3]; mouse, brain and plasma, sc, 10 mg/kg, read-out: brain/plasma (B/P)) was roughly 10.
